According to PubChem BioAssay AID2060602 (Molecular Pharmacology Branch, DTP, NCI, 2025):
Each block holds one compound with its values, some of them ahead of it.

System: 648629-189-R-J1-PDC complex spheroids viability
Assay: Anticancer human tumor 648629-189-R-J1-PDC patient-derived bladder carcinoma cell line growth inhibition [CLK]
Settings: for IC50: curve of first compound; for viability, T/C: stronger effect = lower value
Method in brief: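 Patient-derived tumor cells grown as complex spheroids with HUVEC endothelial cells and mesenchymal stem cells, treated with drug combinations. Concentrations descend in half-log steps from near clinical Cmax, or from 10 microM if Cmax unknown.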

[1] = second compound 0.0316 µM, first compound 0.0316 µM
[2] = second compound 0.0316 µM, first compound 0.1 µM
[3] = second compound 0.0316 µM, first compound 0.316 µM
[4] = second compound 0.0316 µM, first compound 1 µM
[5] = second compound 0.1 µM, first compound 0.0316 µM
[6] = second compound 0.1 µM, first compound 0.1 µM
[7] = second compound 0.1 µM, first compound 0.316 µM
[8] = second compound 0.1 µM, first compound 1 µM
[9] = second compound 0.316 µM, first compound 0.0316 µM
[10] = second compound 0.316 µM, first compound 0.1 µM
[11] = second compound 0.316 µM, first compound 0.316 µM
[12] = second compound 0.316 µM, first compound 1 µM
[13] = second compound 1 µM, first compound 0.0316 µM
[14] = second compound 1 µM, first compound 0.1 µM
[15] = second compound 1 µM, first compound 0.316 µM
[16] = second compound 1 µM, first compound 1 µM
[17] = second compound 3.16 µM, first compound 0.0316 µM
[18] = second compound 3.16 µM, first compound 0.1 µM
[19] = second compound 3.16 µM, first compound 0.316 µM
[20] = second compound 3.16 µM, first compound 1 µM
[21] = second compound 10 µM, first compound 0.0316 µM
[22] = second compound 10 µM, first compound 0.1 µM
[23] = second compound 10 µM, first compound 0.316 µM
[24] = second compound 10 µM, first compound 1 µM
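Wherever viability, T/C is given: drug exposure lasted seven days before viability readout; 100% = DMSO vehicle control wells.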

IC50 (second compound 0.0316 µM): < 31.6 nM | IC50 (second compound 0.1 µM): < 31.6 nM | IC50 (second compound 0.316 µM): < 31.6 nM | IC50 (second compound 1 µM): < 31.6 nM | IC50 (second compound 3.16 µM): < 31.6 nM | IC50 (second compound 10 µM): < 31.6 nM
SMILES: CC(=O)O[C@H]1C(=O)[C@@]2(C)[C@H]([C@H](OC(=O)c3ccccc3)[C@]3(O)C[C@H](OC(=O)[C@H](O)[C@@H](NC(=O)c4ccccc4)c4ccccc4)C(C)=C1C3(C)C)[C@]1(OC(C)=O)CO[C@@H]1C[C@@H]2O + CNC(=O)c1ccc(Nc2nc(OC3CCCC3)c3c(-c4ccc5nc(C)oc5c4)c[nH]c3n2)c(OC)c1
viability, T/C [1]: 11.1% | viability, T/C [2]: 9.61% | viability, T/C [3]: 10% | viability, T/C [4]: 12.1% | viability, T/C (second compound 0.0316 µM, first compound 3.16 µM): 14.1% | viability, T/C (second compound 0.0316 µM, first compound 10 µM): 15.9% | viability, T/C [5]: 13.8% | viability, T/C [6]: 12.4% | viability, T/C [7]: 11.7% | viability, T/C [8]: 12.5% | viability, T/C (second compound 0.1 µM, first compound 3.16 µM): 13% | viability, T/C (second compound 0.1 µM, first compound 10 µM): 28.7% | viability, T/C [9]: 40.7% | viability, T/C [10]: 50.4% | viability, T/C [11]: 62.9% | viability, T/C [12]: 70.5% | viability, T/C (second compound 0.316 µM, first compound 3.16 µM): 76.1% | viability, T/C (second compound 0.316 µM, first compound 10 µM): 97.3% | viability, T/C [13]: 40.6% | viability, T/C [14]: 64.3% | viability, T/C [15]: 58.8% | viability, T/C [16]: 66.5% | viability, T/C (second compound 1 µM, first compound 3.16 µM): 75% | viability, T/C (second compound 1 µM, first compound 10 µM): 76.9% | viability, T/C [17]: 33.9% | viability, T/C [18]: 47.7% | viability, T/C [19]: 74.3% | viability, T/C [20]: 64.2% | viability, T/C (second compound 3.16 µM, first compound 3.16 µM): 67.5% | viability, T/C (second compound 3.16 µM, first compound 10 µM): 72.7% | viability, T/C [21]: 39.9% | viability, T/C [22]: 42.5% | viability, T/C [23]: 59.8% | viability, T/C [24]: 64.4% | viability, T/C (second compound 10 µM, first compound 3.16 µM): 65.7% | viability, T/C (second compound 10 µM, first compound 10 µM): 73.2%

IC50 (second compound 0.0316 µM): < 3.16 nM | IC50 (second compound 0.1 µM): < 3.16 nM | IC50 (second compound 0.316 µM): < 3.16 nM | IC50 (second compound 1 µM): < 3.16 nM | IC50 (second compound 3.16 µM): < 3.16 nM | IC50 (second compound 10 µM): < 3.16 nM
SMILES: CCc1c2c(nc3ccc(O)cc13)-c1cc3c(c(=O)n1C2)COC(=O)[C@]3(O)CC + CNC(=O)c1ccc(Nc2nc(OC3CCCC3)c3c(-c4ccc5nc(C)oc5c4)c[nH]c3n2)c(OC)c1
viability, T/C (second compound 0.0316 µM, first compound 0.00316 µM): 30.3% | viability, T/C (second compound 0.0316 µM, first compound 0.01 µM): 11.5% | viability, T/C [1]: 8.79% | viability, T/C [2]: 5.84% | viability, T/C [3]: 5.59% | viability, T/C [4]: 4.59% | viability, T/C (second compound 0.1 µM, first compound 0.00316 µM): 30.1% | viability, T/C (second compound 0.1 µM, first compound 0.01 µM): 10.5% | viability, T/C [5]: 7.18% | viability, T/C [6]: 5.66% | viability, T/C [7]: 5.26% | viability, T/C [8]: 2.75% | viability, T/C (second compound 0.316 µM, first compound 0.00316 µM): 14.1% | viability, T/C (second compound 0.316 µM, first compound 0.01 µM): 8.48% | viability, T/C [9]: 7.05% | viability, T/C [10]: 4.87% | viability, T/C [11]: 5.55% | viability, T/C [12]: 4.88% | viability, T/C (second compound 1 µM, first compound 0.00316 µM): 11.9% | viability, T/C (second compound 1 µM, first compound 0.01 µM): 10.9% | viability, T/C [13]: 8.46% | viability, T/C [14]: 5.17% | viability, T/C [15]: 4.53% | viability, T/C [16]: 3.56% | viability, T/C (second compound 3.16 µM, first compound 0.00316 µM): 14.8% | viability, T/C (second compound 3.16 µM, first compound 0.01 µM): 13.1% | viability, T/C [17]: 9.98% | viability, T/C [18]: 6.24% | viability, T/C [19]: 7.38% | viability, T/C [20]: 5.35% | viability, T/C (second compound 10 µM, first compound 0.00316 µM): 17.2% | viability, T/C (second compound 10 µM, first compound 0.01 µM): 13.8% | viability, T/C [21]: 10.4% | viability, T/C [22]: 7.91% | viability, T/C [23]: 6.48% | viability, T/C [24]: 4.98%
